Where two headings read alike, the source gives them in different places. Where a SMILES comes first, the peptide text is derived from it. Bridges are numbered along the chain shown (N, C = ends). [ ]: non-standard residue; d: D form. The star is where a group is joined. hPhe(3,5-F2-4-CF3) = N[C@@H](CCc1cc(F)c(C(F)(F)F)c(F)c1)C(=O)O; hPhe(3-Cl-4-CF3) = N[C@@H](CCc1ccc(C(F)(F)F)c(Cl)c1)C(=O)O; NPrPhe(4-CF3) = CCCN[C@@H](Cc1ccc(C(F)(F)F)cc1)C(=O)O; NEtPhe(4-CF3) = CCN[C@@H](Cc1ccc(C(F)(F)F)cc1)C(=O)O; NEtPhe(4-Me) = CCN[C@@H](Cc1ccc(C)cc1)C(=O)O; NMeGly(cPent) = CN[C@H](C(=O)O)C1CCCC1; NMeD = CN[C@@H](CC(=O)O)C(=O)O; NMeL = CN[C@@H](CC(C)C)C(=O)O; αMeS = C[C@](N)(CO)C(=O)O; Morpholide = C1CN(*)CCO1; NMeA = CN[C@@H](C)C(=O)O; Ac5c = NC1(C(=O)O)CCCC1; Aze = O=C(O)[C@@H]1CCN1; Aib = CC(C)(N)C(=O)O; Sar = CNCC(=O)O
How the values were obtained:
[1] = test system: human lung cancer strain NCI-H441; assay type: cell-based
How it was run: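 Step one: dispense the test compound in serial DMSO dilutions. Step three: add the reagent and measure […].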

[2] = biological target: GDP-bound NRAS wild-type protein (Homo sapiens, UniProt P01111); assay: Binding to NRAS by surface plasmon resonance (SPR), KD and KD ratio to KRAS
How it was run: (§1)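 Captured GDP-RAS (~100–300 RU) was exposed to increasing compound concentrations, 75 s per step, in running buffer with 10 µM GDP, 10 mM MgCl2 and 4% DMSO at pH 7.4.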

HRAS wild-type protein = HRAS wild-type protein (Homo sapiens, UniProt P01112); assay: Binding to HRAS by surface plasmon resonance (SPR), KD and KD ratio to KRAS
How it was run: as §1

[3] = ratio of KD for GDP-bound NRAS wild-type protein to KD for KRAS
[4] = ratio of KD for HRAS wild-type protein to KD for KRAS
[5] = ratio of the KD value with respect to GDP-bound NRAS wild-type protein to the KD value with respect to KRAS
[6] = ratio of the KD value with respect to HRAS wild-type protein to the KD value with respect to KRAS

GDP-bound NRAS wild-type protein, sequence (P01111 whole entry): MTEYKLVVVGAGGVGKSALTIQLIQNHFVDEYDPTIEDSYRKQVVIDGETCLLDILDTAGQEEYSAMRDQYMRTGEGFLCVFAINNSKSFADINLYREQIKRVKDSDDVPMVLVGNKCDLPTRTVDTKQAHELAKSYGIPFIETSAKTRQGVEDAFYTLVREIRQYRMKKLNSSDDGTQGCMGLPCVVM
HRAS wild-type protein, sequence (P01112 whole entry): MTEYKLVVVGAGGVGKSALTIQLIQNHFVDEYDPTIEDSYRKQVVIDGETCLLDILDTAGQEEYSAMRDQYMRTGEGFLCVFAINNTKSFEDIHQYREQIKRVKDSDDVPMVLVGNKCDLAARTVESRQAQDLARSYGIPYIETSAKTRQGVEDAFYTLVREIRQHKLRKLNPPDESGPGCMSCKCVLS

IC50 [1] [nM] | SMILES | NRAS /KRAS [2, 3] | HRAS /KRAS (HRAS wild-type protein; [4]) | NRAS /KRAS [2, 5] | HRAS /KRAS (HRAS wild-type protein; [6]) | other results
16.8 | CCO[C@@H]1C[C@H]2C(=O)NC3(CCC3)C(=O)N(C)[C@@H](C3CCCC3)C(=O)N(C)[C@H](C(=O)N(C)C)CC(=O)N(CC)[C@@H](CC(C)C)C(=O)N[C@@H]([C@@H](C)CC)C(=O)N(C)CC(=O)N(C)[C@H]3C/C=C\CCN(C3=O)[C@@H](Cc3ccc(C(F)(F)F)cc3)C(=O)N(C)CC(=O)N[C@@H](CCc3cc(F)c(C(F)(F)F)c(F)c3)C(=O)N2C1 [PP1765] | – | – | – | – | NRAS /KRAS ([2]; ratio of KD value for GDP-bound NRAS wild-type protein to KD value for KRAS (SPR)): A (a compound having 10 or more and less than 20 is denoted as A); HRAS /KRAS (HRAS wild-type protein; ratio of KD value for HRAS wild-type protein to KD value for KRAS (SPR)): A (a compound having 10 or more and less than 20 is denoted as A)
2.9 | CC[C@H](C)[C@@H]1NC(=O)[C@H](CC(C)C)N(C)C(=O)C[C@@H](C(=O)N2CCOCC2)N(C)C(=O)[C@H](C2CCCC2)N(C)C(=O)C(C)(C)NC(=O)[C@@H]2CCCN2C(=O)[C@H](CCc2ccc(C(F)(F)F)c(Cl)c2)NC(=O)CN(C)C(=O)[C@H](Cc2ccc(C(F)(F)F)cc2)N(CC)C(=O)[C@@H]2CCN2C(=O)[C@H](C)N(C)C1=O [PP0221] ([NMeL]I[NMeA][Aze][NEtPhe(4-CF3)][Sar][hPhe(3-Cl-4-CF3)]P[Aib][NMeGly(cPent)][NMeD]-Morpholide; lactam N-11) | C (A compound having a KD ratio of 0.1 or more and less than 3 is denoted as C) | C (A compound having a KD ratio of 0.1 or more and less than 3 is denoted as C) | – | – | –
51.5 | CCCN1C(=O)CN(C)C(=O)CN(C)C(=O)[C@H]([C@@H](C)CC)NC(=O)[C@H](CC(C)C)N(C)C(=O)C[C@@H](C(=O)N(C)C)N(C)C(=O)[C@H](C2CCCC2)N(C)C(=O)[C@](C)(COC)NC(=O)[C@@H]2CCCN2C(=O)[C@H](CCc2cc(F)c(C(F)(F)F)c(F)c2)NC(=O)CN(C)C(=O)[C@@H]1Cc1ccc(C(F)(F)F)cc1 [PP0741] ([NMeL]I[Sar][Sar][NPrPhe(4-CF3)][Sar][hPhe(3,5-F2-4-CF3)]P[αMeS](Me)[NMeGly(cPent)][NMeD]-NMe2; lactam N-11) | – | – | B (a compound having 3 or more and less than 10 is denoted as B) | B (a compound having 3 or more and less than 10 is denoted as B) | –
29.4 | CCO[C@@H]1C[C@H]2C(=O)NC3(CC(C)(C)C3)C(=O)N(C)[C@@H](C(CC)CC)C(=O)N(C)[C@H](C(=O)N3CCCC3)CC(=O)N(C)[C@@H](C)C(=O)N[C@@H]([C@@H](C)CC)C(=O)N(C)CC(=O)N(C)[C@H]3C/C=C\CCN(C3=O)[C@@H](Cc3ccc(C)cc3)C(=O)N(C)CC(=O)N[C@@H](CCc3ccc(C(F)(F)F)c(Cl)c3)C(=O)N2C1 [PP2152] | – | – | AA (a compound having 20 or more is denoted as AA) | A (a compound having 10 or more and less than 20 is denoted as A) | –
21.8 | CC[C@H](C)[C@@H]1NC(=O)[C@H](CC(C)C)N(C)C(=O)C[C@@H](C(=O)N2CCOCC2)N(C)C(=O)[C@H](C2CCCC2)N(C)C(=O)C2(CCCC2)NC(=O)[C@@H]2CCCN2C(=O)[C@H](CCc2ccc(C(F)(F)F)c(Cl)c2)NC(=O)CN(C)C(=O)[C@H](Cc2ccc(OC(F)(F)F)cc2)N2CCCC[C@@H](C2=O)N(C)C(=O)CN(C)C1=O [PP0536] | – | – | B (a compound having 3 or more and less than 10 is denoted as B) | B (a compound having 3 or more and less than 10 is denoted as B) | –
5.1 | CCC[C@H]1C(=O)N[C@@H](C2CCCC2)C(=O)N(C)CC(=O)N(C)[C@H]2C/C=C\CCN(C2=O)[C@@H](Cc2ccc(C(F)(F)F)cc2)C(=O)N(C)CC(=O)N[C@@H](CCc2ccc(C(F)(F)F)c(Cl)c2)C(=O)N2C[C@H](OCC)C[C@H]2C(=O)NC2(CC(C)(C)C2)C(=O)N(C)[C@@H](CC(C)(C)C)C(=O)N(C)[C@H](C(=O)N(C)C)CC(=O)N1C [PP2971] | A (a compound having 10 or more and less than 20 is denoted as A) | A (a compound having 10 or more and less than 20 is denoted as A) | – | – | –
29.2 | CCC[C@H]1C(=O)N[C@@H]([C@@H](C)CC)C(=O)N(C)CC(=O)N(C)[C@H]2C/C=C\CCN(C2=O)[C@@H](Cc2ccc(C)cc2)C(=O)N(C)CC(=O)N[C@@H](CCc2ccc(Cl)c(Cl)c2)C(=O)N2C[C@H](OCC)C[C@H]2C(=O)NC2(CC(C)(C)C2)C(=O)N(C)[C@@H](C(CC)CC)C(=O)N(C)[C@H](C(=O)N(C)C)CC(=O)N1C [PP2184] | – | – | AA (a compound having 20 or more is denoted as AA) | A (a compound having 10 or more and less than 20 is denoted as A) | –
12.8 | CCO[C@@H]1C[C@H]2C(=O)NC3(CCCC3)C(=O)N(C)[C@@H](C3CCCC3)C(=O)N(C)[C@H](C(=O)N(C)C)CC(=O)N(C)[C@@H](CC(C)C)C(=O)N[C@@H]([C@@H](C)CC)C(=O)N(C)CC(=O)N(C)[C@H]3C/C=C\CCN(C3=O)[C@@H](Cc3ccc(C(F)(F)F)cc3)C(=O)N(C)CC(=O)N[C@@H](CCc3ccc(Cl)c(Cl)c3)C(=O)N2C1 [PP2837] | AA (a compound having 20 or more is denoted as AA) | A (a compound having 10 or more and less than 20 is denoted as A) | – | – | –
8.3 | CC[C@H](C)[C@@H]1NC(=O)[C@H](CC(C)C)N(C)C(=O)C[C@@H](C(=O)N2CCOCC2)N(C)C(=O)[C@H](C2CCCCC2)N(C)C(=O)C2(CCCC2)NC(=O)[C@@H]2CCCN2C(=O)[C@H](CCc2cc(F)c(C(F)(F)F)c(F)c2)NC(=O)CN(C)C(=O)[C@H](Cc2ccc(C(F)(F)F)cc2)N2CCCC[C@@H](C2=O)N(C)C(=O)CN(C)C1=O [PP0567] | – | – | B (a compound having 3 or more and less than 10 is denoted as B) | B (a compound having 3 or more and less than 10 is denoted as B) | –
26.9 | CCO[C@@H]1C[C@H]2C(=O)NC3(CCC3)C(=O)N(C)[C@@H](C3CCCC3)C(=O)N(C)[C@H](C(=O)N(C)C)CC(=O)N(C)[C@@H](Cc3cccc(F)c3)C(=O)N[C@@H]([C@@H](C)CC)C(=O)N(C)CC(=O)N(C)[C@H]3CCCCCN(C3=O)[C@@H](Cc3ccc(C(F)(F)F)cc3)C(=O)N(C)CC(=O)N[C@@H](CCc3cc(F)c(C(F)(F)F)c(F)c3)C(=O)N2C1 [PP0935] | B (a compound having 3 or more and less than 10 is denoted as B) | B (a compound having 3 or more and less than 10 is denoted as B) | – | – | –
9.2 | CCO[C@@H]1C[C@H]2C(=O)NC3(CCC3)C(=O)N(C)[C@@H](C3CCCC3)C(=O)N(C)[C@H](C(=O)N(C)CC)CC(=O)N(C)[C@@H](C)C(=O)N[C@@H]([C@@H](C)CC)C(=O)N(C)CC(=O)N(C)[C@H]3C/C=C\CCN(C3=O)[C@@H](Cc3ccc(C(F)(F)F)cc3)C(=O)N(C)CC(=O)N[C@@H](CCc3cc(F)c(C(F)(F)F)c(F)c3)C(=O)N2C1 [PP1302] | – | – | – | – | NRAS /KRAS ([2]; ratio of KD with respect to GDP-bound NRAS wild-type protein to KD with respect to KRAS): A (a compound having 10 or more and less than 20 is denoted as A); HRAS /KRAS (HRAS wild-type protein; ratio of KD with respect to HRAS wild-type protein to KD with respect to KRAS): A (a compound having 10 or more and less than 20 is denoted as A)
– | CCC[C@H]1C(=O)N[C@@H]([C@@H](C)CC)C(=O)N(C)CC(=O)N(C)[C@H]2C/C=C\CCN(C2=O)[C@@H](Cc2ccc(C(F)(F)F)cc2)C(=O)N(C)CC(=O)N[C@@H](CCc2cc(Cl)c(C(F)F)c(Cl)c2)C(=O)N2C[C@H](OCC)C[C@H]2C(=O)NC2(CC(C)(C)C2)C(=O)N(C)[C@@H](C2CCCC2)C(=O)N(C)[C@H](C(=O)N(C)C)CC(=O)N1C [PP2865] | A (a compound having 10 or more and less than 20 is denoted as A) | A (a compound having 10 or more and less than 20 is denoted as A) | – | – | IC50 ([1]; NCI-H441 cells, 4 days, CellTiter-Glo, read-out: NCl-H441 IC50): 37.7 nM
292 | CC[C@H](C)[C@@H]1NC(=O)[C@H](CC(C)C)N(C)C(=O)C[C@@H](C(=O)N2CCOCC2)N(C)C(=O)[C@H](CC(C)C)N(C)C(=O)C2(CCCC2)NC(=O)[C@@H]2CCCN2C(=O)[C@H](CCc2ccc(C(F)(F)F)c(Cl)c2)NC(=O)CN(C)C(=O)[C@H](Cc2ccc(C)cc2)N(CC)C(=O)CN(C)C(=O)CN(C)C1=O [PP0045] ([NMeL]I[Sar][Sar][NEtPhe(4-Me)][Sar][hPhe(3-Cl-4-CF3)]P[Ac5c][NMeL][NMeD]-Morpholide; lactam N-11) | C (A compound having a KD ratio of 0.1 or more and less than 3 is denoted as C) | C (A compound having a KD ratio of 0.1 or more and less than 3 is denoted as C) | – | – | –
4.5 | CC[C@H](C)[C@@H]1NC(=O)[C@@H]2CCCCCCc3ccc(cc3)C[C@@H](C(=O)N(C)CC(=O)N[C@@H](CCc3ccc(C(F)(F)F)c(OC)c3)C(=O)N3C[C@H](OC4CCC4)C[C@H]3C(=O)NC3(CC(C)(C)C3)C(=O)N(C)[C@@H](C3CCCC3)C(=O)N(C)[C@H](C(=O)N(C)C)CC(=O)N2C)N2CC/C=C\C[C@@H](C2=O)N(C)C(=O)CN(C)C1=O [PP3068] | A (a compound having 10 or more and less than 20 is denoted as A) | B (a compound having 3 or more and less than 10 is denoted as B) | – | – | –
29 | CCO[C@@H]1C[C@H]2C(=O)NC3(CC(C)(C)C3)C(=O)N(C)[C@@H](C(CC)CC)C(=O)N(C)[C@H](C(=O)N3CCCC3)CC(=O)N(C)[C@@H](COC)C(=O)N[C@@H]([C@@H](C)CC)C(=O)N(C)CC(=O)N(C)[C@H]3C/C=C\CCN(C3=O)[C@@H](Cc3ccc(C)cc3)C(=O)N(C)CC(=O)N[C@@H](CCc3ccc(C(F)(F)F)c(Cl)c3)C(=O)N2C1 [PP2144] | – | – | AA (a compound having 20 or more is denoted as AA) | A (a compound having 10 or more and less than 20 is denoted as A) | –
